The target of data set [1] is T1, GluK3 (Rattus norvegicus, UniProt P42264).
T1 construct: made in house; host or cells: Sf9 insect cells (membranes)
The following applies: cited from earlier work.

Data set [2] concerns the target T2, GluK1 (Rattus norvegicus, UniProt P22756).
T2 construct: made in house; host or cells: Sf9 insect cells (membranes)
Particulars: recombinant rat iGluR, mean ± SEM; cited from earlier work.

For data set [3], the target named is T3, GluA2 (Rattus norvegicus, UniProt P19491).
T3 construct: made in house; host or cells: Sf9 insect cells (membranes)
T3 sequence (P19491 22-883): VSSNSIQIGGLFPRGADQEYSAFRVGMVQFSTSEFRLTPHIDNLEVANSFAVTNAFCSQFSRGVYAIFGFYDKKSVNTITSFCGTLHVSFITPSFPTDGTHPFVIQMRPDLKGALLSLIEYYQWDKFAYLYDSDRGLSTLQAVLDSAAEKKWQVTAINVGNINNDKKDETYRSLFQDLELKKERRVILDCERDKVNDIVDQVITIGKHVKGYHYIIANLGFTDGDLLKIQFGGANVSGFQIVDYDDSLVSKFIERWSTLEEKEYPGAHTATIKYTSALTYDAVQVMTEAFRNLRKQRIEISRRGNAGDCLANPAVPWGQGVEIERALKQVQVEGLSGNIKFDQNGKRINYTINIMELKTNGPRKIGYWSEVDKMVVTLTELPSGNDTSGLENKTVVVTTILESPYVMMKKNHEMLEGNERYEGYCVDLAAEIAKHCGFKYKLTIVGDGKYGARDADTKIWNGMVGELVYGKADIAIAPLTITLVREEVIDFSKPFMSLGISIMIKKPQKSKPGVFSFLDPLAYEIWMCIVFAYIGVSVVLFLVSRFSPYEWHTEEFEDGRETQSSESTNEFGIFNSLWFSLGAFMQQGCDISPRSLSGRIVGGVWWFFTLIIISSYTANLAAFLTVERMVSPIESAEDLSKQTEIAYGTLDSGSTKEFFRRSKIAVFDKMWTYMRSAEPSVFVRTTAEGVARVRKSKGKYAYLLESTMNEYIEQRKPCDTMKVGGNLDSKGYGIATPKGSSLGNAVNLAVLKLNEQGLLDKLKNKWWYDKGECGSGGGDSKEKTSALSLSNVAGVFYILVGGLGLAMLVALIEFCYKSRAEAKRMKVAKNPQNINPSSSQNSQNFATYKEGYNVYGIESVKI
The following applies: recombinant rat iGluR, mean ± SEM; cited from earlier work.

Data set [4] has as its target T4, GluK5 (Rattus norvegicus, UniProt Q63273).
T4 construct: made in house; host or cells: Sf9 insect cells (membranes)
T4 sequence (Q63273 15-979): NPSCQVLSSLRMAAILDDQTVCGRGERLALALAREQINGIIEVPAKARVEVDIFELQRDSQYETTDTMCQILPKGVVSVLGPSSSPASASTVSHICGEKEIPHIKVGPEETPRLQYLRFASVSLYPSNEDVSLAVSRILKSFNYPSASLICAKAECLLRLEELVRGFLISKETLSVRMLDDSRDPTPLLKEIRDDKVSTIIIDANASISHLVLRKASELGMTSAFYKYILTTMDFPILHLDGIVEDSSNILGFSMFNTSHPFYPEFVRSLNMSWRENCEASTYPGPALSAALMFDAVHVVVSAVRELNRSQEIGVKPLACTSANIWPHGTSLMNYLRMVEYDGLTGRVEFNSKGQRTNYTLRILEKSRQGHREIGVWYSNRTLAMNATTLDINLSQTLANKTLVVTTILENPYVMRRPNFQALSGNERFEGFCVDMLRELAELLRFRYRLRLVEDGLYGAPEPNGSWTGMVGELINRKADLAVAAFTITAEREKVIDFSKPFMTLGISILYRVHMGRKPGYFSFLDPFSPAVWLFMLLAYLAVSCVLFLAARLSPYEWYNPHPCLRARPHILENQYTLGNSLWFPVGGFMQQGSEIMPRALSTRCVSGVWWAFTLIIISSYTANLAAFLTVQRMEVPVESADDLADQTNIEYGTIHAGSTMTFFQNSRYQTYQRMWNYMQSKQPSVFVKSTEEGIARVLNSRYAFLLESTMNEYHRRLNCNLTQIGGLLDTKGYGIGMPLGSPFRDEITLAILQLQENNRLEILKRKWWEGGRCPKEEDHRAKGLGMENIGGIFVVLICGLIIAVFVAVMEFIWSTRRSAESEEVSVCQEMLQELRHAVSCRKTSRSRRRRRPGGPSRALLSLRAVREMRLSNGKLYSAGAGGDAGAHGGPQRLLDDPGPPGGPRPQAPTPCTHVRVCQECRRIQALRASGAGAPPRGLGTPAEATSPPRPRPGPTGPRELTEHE
The following applies: recombinant rat iGluR, mean ± SEM; cited from earlier work.

For data set [5], the target named is T5, GluK2 (Rattus norvegicus, UniProt P42260).
T5 construct: made in house; host or cells: Sf9 insect cells (membranes)
T5 sequence (P42260 32-908): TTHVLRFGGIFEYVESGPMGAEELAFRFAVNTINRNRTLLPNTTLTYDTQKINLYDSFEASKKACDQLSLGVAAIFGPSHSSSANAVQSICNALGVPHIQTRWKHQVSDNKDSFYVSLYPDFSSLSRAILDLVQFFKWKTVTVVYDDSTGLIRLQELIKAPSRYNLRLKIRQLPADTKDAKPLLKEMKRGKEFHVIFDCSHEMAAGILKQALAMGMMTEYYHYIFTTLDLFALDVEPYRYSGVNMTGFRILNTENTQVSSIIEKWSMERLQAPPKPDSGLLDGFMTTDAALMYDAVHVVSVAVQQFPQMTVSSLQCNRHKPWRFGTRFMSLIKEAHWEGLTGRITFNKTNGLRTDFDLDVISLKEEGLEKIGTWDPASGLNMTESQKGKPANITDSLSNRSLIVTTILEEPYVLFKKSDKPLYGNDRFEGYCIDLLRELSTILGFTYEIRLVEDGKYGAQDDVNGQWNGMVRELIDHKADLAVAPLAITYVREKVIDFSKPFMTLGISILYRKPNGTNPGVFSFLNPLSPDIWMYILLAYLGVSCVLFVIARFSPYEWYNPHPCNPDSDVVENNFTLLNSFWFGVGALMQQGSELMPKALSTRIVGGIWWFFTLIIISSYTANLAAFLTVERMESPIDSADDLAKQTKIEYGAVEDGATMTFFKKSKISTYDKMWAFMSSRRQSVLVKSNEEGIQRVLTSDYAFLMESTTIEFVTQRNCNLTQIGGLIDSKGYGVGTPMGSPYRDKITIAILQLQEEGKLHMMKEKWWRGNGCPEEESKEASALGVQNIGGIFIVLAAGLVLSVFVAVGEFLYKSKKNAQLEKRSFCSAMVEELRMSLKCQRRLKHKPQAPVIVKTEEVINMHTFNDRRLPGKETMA
The following applies: recombinant rat iGluR, mean ± SEM; cited from earlier work.

For data set [6], the target named is T5, GluK2. The data set can be described thus: Radioligand binding at recombinant homomeric GluK2 in Sf9 membranes. The following applies: recombinant rat homomeric receptor, [3H]-kainic acid, mean ± SEM. The method, then: (§1) Ligand binding affinities at recombinant rat homomeric GluA2, GluK1−3, and GluK5 were determined as previously detailed. […] The filters were dried at 70 °C for 1 h, and 50 μL/well Microscint 20 (PerkinElmer, Waltham, MA, USA) was added. Radioactivity was detected with a TopCounter (PerkinElmer, Waltham, MA, USA). GluA2 and GluK5 assays were filtered on GF/C type filters using Millipore 12-well filtration manifolds (Merck Life Science, Søborg, Denmark) and washed twice with ice-cold assay buffer. Filters were placed in pony vials (PerkinElmer, Waltham, MA, USA), 3 mL of Ultima Gold scintillation fluid (PerkinElmer, Waltham, MA, USA) was added, and DPM (disintegrations per minute) were determined using a TriCarb 2900 scintillation counter (PerkinElmer, Waltham, MA, USA).
(§2) All competition curves (n ≥ 3 per ligand) were determined in triplicate. Data were analyzed using GraphPad Prism 6 (GraphPad Software, San Diego, CA, USA) to determine ligand affinity (Ki) and Hill coefficient (nH) using the one-site Ki and four-parameter logistics equations, respectively.

Data set [7] concerns the target T4, GluK5. The experiment in a line: Radioligand binding at recombinant homomeric GluK5 in Sf9 membranes. The following applies: recombinant rat homomeric receptor, [3H]-kainic acid, mean ± SEM. The method, then: as §1, §2
The target in data set [8] is T1, GluK3. The data set can be described thus: Radioligand binding at recombinant homomeric GluK3 in Sf9 membranes. The following applies: recombinant rat homomeric receptor, [3H]-kainic acid, mean ± SEM. The method, then:
as §1, §2

Data set [9] deals with T3, GluA2. The experiment in a line: Radioligand binding at recombinant homomeric GluA2 in Sf9 membranes. The following applies: recombinant rat homomeric receptor, [3H]-(RS)-AMPA, mean ± SEM. The method, then: as §1, §2
For data set [10], the target named is T6, GluK3a (Rattus norvegicus, UniProt P42264).
T6 construct: expressed in transfected cells
T6 sequence (P42264 32-919): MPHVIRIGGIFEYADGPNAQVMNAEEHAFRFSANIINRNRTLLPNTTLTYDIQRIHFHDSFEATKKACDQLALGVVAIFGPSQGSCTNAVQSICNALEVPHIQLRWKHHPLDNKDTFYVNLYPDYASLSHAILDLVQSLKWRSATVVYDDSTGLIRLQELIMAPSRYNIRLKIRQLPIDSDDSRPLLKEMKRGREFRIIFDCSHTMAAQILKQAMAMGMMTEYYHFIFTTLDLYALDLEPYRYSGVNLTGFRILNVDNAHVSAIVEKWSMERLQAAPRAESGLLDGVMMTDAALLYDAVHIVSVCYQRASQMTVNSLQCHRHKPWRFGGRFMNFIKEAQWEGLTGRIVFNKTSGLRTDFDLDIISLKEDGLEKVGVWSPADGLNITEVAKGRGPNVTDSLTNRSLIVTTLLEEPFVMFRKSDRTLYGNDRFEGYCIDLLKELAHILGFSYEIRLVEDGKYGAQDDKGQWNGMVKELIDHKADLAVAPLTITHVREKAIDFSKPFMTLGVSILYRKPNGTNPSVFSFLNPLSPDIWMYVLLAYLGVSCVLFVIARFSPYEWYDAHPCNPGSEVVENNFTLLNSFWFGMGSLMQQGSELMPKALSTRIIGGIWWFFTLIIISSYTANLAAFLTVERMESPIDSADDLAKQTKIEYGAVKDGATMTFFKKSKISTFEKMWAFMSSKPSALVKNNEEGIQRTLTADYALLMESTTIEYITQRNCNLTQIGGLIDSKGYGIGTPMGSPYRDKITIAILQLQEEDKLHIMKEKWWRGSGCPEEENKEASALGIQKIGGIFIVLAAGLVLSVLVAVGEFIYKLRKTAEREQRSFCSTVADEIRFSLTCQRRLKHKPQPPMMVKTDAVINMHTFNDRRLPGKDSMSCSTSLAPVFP
The experiment in a line: Intracellular Ca2+ imaging assay, HEK293 cells expressing GluK3a. The class given is cell-based. Particulars: 100 µM KA + 300 µM BPAM344, Ca2+ fluorescence, read-out: IC50, antagonism of agonist-evoked responses at GluK3. From the text: For the determination of antagonistic activity of compounds at GluK1, GluK3 and GluA2 receptors, stable HEK293 cell lines expressing rat GluK1b(Q), GluK3a, and GluA2(Q)i were created. A polyclonal stable cell line expressing GluK3a was created as described previously. For the creation of polyclonal stable cell lines expressing GluK1and GluA2 receptors, cDNA encoding blasticidin-S deaminase (blas) enzymes were inserted into the pIRES plasmid vector (Clontech, Mountain View, CA, USA) to create the plasmid vector pRES(blas). Subsequently, cDNA for rat GluK1(Q)1b and the flip isoform of rat GluA2(Q)i were inserted into pRES(blas) to create the expression constructs GluK1b(Q)pIRES(blas) and GluA2i(Q)pIRES(blas), respectively. These were used to transfect GripTite^TM HEK293 cells followed by selecting with 20 µg/mL blasticidin (Invivogen, Toulouse, France) and 0.50 mg/mL geneticin in the presence of 20 µM of the AMPA receptor antagonist CNQX (Tocris, Bristol, UK) until stably transfected GluK1b(Q) and GluA2(Q)i cell lines were obtained. For functional assays, cells were plated into clear-bottomed, black 96-well fluorescence culture plates (Corning, Vordingborg, Denmark), and when >70% confluent, the cells were loaded with 2 μM Fluo 4-AM calcium sensitive dye (Abcam, Cambridge, UK) and used for the imaging of agonist-evoked changes in intracellular Ca^2+ using a FlexStation I plate reader (Molecular Devices, San Jose, CA, USA). […] Changes in dye fluorescence in response to the addition of an agonist solution were then measured at 538 nm using excitation at 485 nm and emission cut-off at 515 nm. Baseline fluorescence was measured for 16 s before the addition of 50 µL agonist solution to each well of the assay plate, and fluorescence was measured for 120 to 160 s after addition of the agonists. Peak change in fluorescence was calculated as the difference between the maximal observed increase in fluorescence and pre-agonist baseline fluorescence. The agonist solutions contained 100 µM KA together with 300 µM of the KAR positive allosteric modulator BPAM344 (Sigma-Aldrich Chemical, St. Louis, MO, USA) for GluK1 and GluK3 experiments or 100 µM glutamate together with 100 µM of the AMPAR positive allosteric modulator cyclothiazide for GluA2 experiments (HelloBio, Bristol, UK). Responses were determined in at least triplicate at each compound concentration.

Data set [11] deals with T2, GluK1. The data set can be described thus: Radioligand binding at recombinant homomeric GluK1 in Sf9 membranes. The following applies: recombinant rat homomeric receptor, [3H]-(S)-NF608, mean ± SEM. How it is done:
as §1, §2

Usually Ki stands for a dissociation constant, usually derived from enzyme kinetics or from competition with a known ligand. For orientation: melting point means the temperature of the solid-liquid transition. For orientation: IC50 means the concentration that gives 50% inhibition.

Like-named read-outs stand apart in the source and are kept apart here.

T1 sequence (P42264 32-919): as above
T2 sequence (P22756 31-949): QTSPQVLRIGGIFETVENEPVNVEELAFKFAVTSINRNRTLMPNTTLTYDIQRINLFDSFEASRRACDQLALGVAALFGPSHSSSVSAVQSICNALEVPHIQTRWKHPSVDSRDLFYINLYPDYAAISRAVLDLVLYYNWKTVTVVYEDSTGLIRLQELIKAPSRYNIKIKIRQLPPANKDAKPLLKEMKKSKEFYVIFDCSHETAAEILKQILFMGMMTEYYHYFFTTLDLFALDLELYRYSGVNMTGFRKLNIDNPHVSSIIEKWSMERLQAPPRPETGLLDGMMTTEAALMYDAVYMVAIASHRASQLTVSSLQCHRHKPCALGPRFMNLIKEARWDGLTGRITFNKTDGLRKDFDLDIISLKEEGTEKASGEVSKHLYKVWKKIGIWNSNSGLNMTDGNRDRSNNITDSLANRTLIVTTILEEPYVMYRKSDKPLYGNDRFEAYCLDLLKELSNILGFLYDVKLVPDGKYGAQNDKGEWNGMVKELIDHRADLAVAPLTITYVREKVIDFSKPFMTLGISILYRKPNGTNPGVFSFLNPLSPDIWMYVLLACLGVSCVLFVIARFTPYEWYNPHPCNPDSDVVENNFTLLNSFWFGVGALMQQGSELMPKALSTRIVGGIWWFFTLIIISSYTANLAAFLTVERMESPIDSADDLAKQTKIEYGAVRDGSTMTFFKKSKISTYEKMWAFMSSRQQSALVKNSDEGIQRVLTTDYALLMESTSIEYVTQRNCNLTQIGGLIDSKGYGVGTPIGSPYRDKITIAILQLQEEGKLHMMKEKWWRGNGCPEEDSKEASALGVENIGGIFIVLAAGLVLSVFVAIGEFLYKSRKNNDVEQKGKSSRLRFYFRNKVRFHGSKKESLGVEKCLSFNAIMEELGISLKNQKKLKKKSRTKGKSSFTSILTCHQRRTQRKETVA

For `N[C@@H](Cc1c[nH]c(S)n1)C(=O)O` [(S)-2-mercaptohistidine], the “binding preference at GluK3 over the GluK1, GluK2 and GluK5 subtypes” value in data set [1] (at least) is 15–100 fold.
Take `O=C(Nn1c(=O)c(=O)[nH]c2cc(C#Cc3ccccc3)ccc21)c1ccccc1` [Compound 1, N-(2,3-dioxo-6-(phenylethynyl)-3,4-dihydroquinoxalin-1(2H)-yl)benzamide]: the Ki was greater than 100000 nM in data set [2], 24000 ± 6000 nM in data set [3], greater than 100000 nM in data set [4] and roughly 100000 nM in data set [5].
`O=C(Nn1c(=O)c(=O)[nH]c2cc(C#Cc3cncnc3)ccc21)c1ccccc1` [Compound 27]: the melting point was 318 to 320 °C. The inhibitory constant (Ki) in [6] stood at 12000 ± 2000 nM. Further, the inhibition constant Ki in data set [7] is greater than 100000 nM. For the same molecule, the Ki in data set [8] turned out to be 280 ± 20 nM. Further, the Ki in [9] was greater than 100000 nM. Further, the IC50 in [10] amounted to 600 nM. The Ki in data set [11] was determined as 11000 ± 2000 nM.
In the case of `O=C(Nn1c(=O)c(=O)[nH]c2cc(C#Cc3ccc4[nH]ncc4n3)ccc21)c1ccccc1` [Compound 29], the Ki in [6] is 91 ± 15 nM; in data set [7], 3800 ± 100 nM; in data set [8] it was 130 ± 30 nM; in data set [9], 230 ± 20 nM; in [11], 150 ± 50 nM. Further, the half-maximal inhibitory concentration (IC50) in data set [10] was determined as 2200 nM.
`O=c1[nH]c2cc([N+](=O)[O-])c([N+](=O)[O-])cc2[nH]c1=O` [DNQX]: the Ki is 650 ± 30 nM in data set [2]; 360 ± 30 nM in data set [1] (recombinant rat iGluR, mean ± SEM); 7100 ± 900 nM in [4]; 2100 ± 300 nM in [5].

Values taken from publication PMC9369419 (International Journal of Molecular Sciences, 2022).
